Tests used:
[1] = system: GM-DCs or FL-DCs; assay: Cytokine production (ELISA) by murine GM-DCs or FL-DCs with Aspergillus conidia; type: cell-based, mouse; details: 1-MT added at 2 μM
From the text: GM-DCs or FL-DCs were obtained from purified CD14+ monocytes from healthy donors or transplanted patients (1 month post-HSCT) cultured in Iscove's modified medium for 7-9 days, in the presence of rGM-CSF (Schering-Plough, Milan, Italy) and rIL-4 (Peprotech, Inalco, Milan, Italy) or FLT3-L (Immunex Corporation, Seattle, Wash.) (Blood. 2004; 103:4232-4239). DC recovery was between 20-30% reduced in cultures from transplanted patients. Murine GM-DCs or FL-DCs were obtained from bone marrow cells for 7-9 days, as described (Blood. 2004; 103:4232-4239). Thymosin alpha 1 and sThymosin alpha 1 were added to the cultures at 20 ng/mL. DCs (>99% CD11c+ consisting of 90-95% CD8-, 5-10% CD8+, and 1-5% B220+ cells) were purified from spleens (spDCs) by magnetic-activated sorting using CD11c MicroBeads and MidiMacs (Miltenyi Biotech). DC populations were further separated into CD8−, CD8+ and B220+ fractions by means of CD8 or B220 MicroBeads (Miltenyi Biotech). DCs were pulsed in serum-free Iscove medium for 24 hours with live unopsonized Aspergillus conidia or Zymosan from Saccharomyces cerevisiae (Sigma) or CpG-ODN 2006 as described.7 Phagocytosis was done as described (Blood. 2004; 103:4232-4239). Photographs were taken using a high Resolution Microscopy Color Camera AxioCam, using the AxioVision Software Rel. 3.1 (Carl Zeiss, Milan, Italy).
(§1) Cytokine content was assessed by enzyme-linked immunosorbent assays (Endogen Human Elisa Kits, R&D Systems and Euroclone, Milan, Italy). AID EliSpot assay kits (Amplimedical, Buttigliera Alta, Turin, Italy) were used on purified splenic CD4+ Tcells cocultured with conidia-pulsed DCs for 5 days to enumerate cytokine-producing cells (Blood. 2003; 102:3807-3814). 1-MT was used at 2 μM.
(B) Cytokine production (ELISA) by GM-DCs or FL-DCs cultured in serum-free medium (1×10^6 cells/mL) with unopsonized Aspergillus conidia (5×10^5/mL) for 24 hours. The IDO inhibitor 1-MT was added at 2 μM. Data are aggregated results from three independent experiments. The detection limits (pg/mL) of the assays were <16 for IL-12p70 and <12 for IL-10.

[2] = system: splenic CD4+ T cells; assay: Th1/T reg priming in vitro of splenic CD4+ T cells by Aspergillus-pulsed DCs (ELISPOT, flow cytometry); type: cell-based, mouse
Experimental: IDO expression and functional activity were assessed as described in Nat. Immunol. 2002; 3:1097-1101. Generation, purification and activity of T reg cells Splenic CD4+ T-cells were cocultured with conidia-pulsed DCs for 5 days […] before flow cytometry or ELISPOT assay. 1-MT (Sigma-Aldrich) was used at 2 μM. CD4+CD25+ and CD4+CD25− cells (>90% pure on FACS analysis) were separated by magnetic cell sorting from lung and TLN (J. Immunol. 2006; 176:1712-1723). For T reg cell inhibition, 5×10^4 TLN T reg cells were added to 3×10^5 CD4+CD25− cells, both from transplanted mice, stimulated with 3×10^4 autologous Aspergillus conidia-pulsed spDCs or with or 1.5×10^5 allogeneic spDCs from naïve donor mice for five days before H^3-thymidine labeling. Purified peritoneal CD 11b+Gr−1+PMN (>98% pure on FACS analysis) (2×10^6) were exposed to resting conidia in the presence of 4×10^5 CD4+CD25+ for 60 min for oxidant production or 24 hours for cytokine production (J. Immunol. 2006; 176:1712-1723).
as §1
(A) Frequency of IFN-γ-/IL-10-producing splenic CD4+ T cells activated by Aspergillus-pulsed Thymosin alpha 1-treated GM-DCs or FL-DCs. 1-MT was present in selected cultures. Plates were read with the AID-EliSpot Reader System (Amplimedical). Values are means±SE per 10^6 cells of samples from 3-5 experiments, calculated using replicates of serial twofold dilutions of cells. (*) P<0.05, conidia-exposed versus unexposed cells; (**) P<0.05, thymosin-exposed versus unexposed cells.
(B) Phenotypic analysis of CD4+ cells cultured alone (−) or as in (A). Numbers represent the percentage of double positive cells.

Q: For `Cn1cc(CC(N)C(=O)O)c2ccccc21` (racemic) [1-MT, 1-methyl-DL-tryptophan], which “IL-10 production by DCs in response to Thymosin alpha 1” value [1] is on record?
A: blocked

Q: What about the “expansion of Foxp3+CTLA4+CD25+ T cells co-cultured with FL-DCs” value ([2]; 1-MT) of the same molecule?
A: appeared to interfere with the expansion

Q: What about the IFN-γ-producing cells ([2]; IDO blockade, 1-MT 2 μM) of the same molecule?
A: had no effect

Q: What about the “activation of IL-10-producing CD4+ cells” value ([2]; IDO blockade, 1-MT 2 μM) of the same molecule?
A: prevented activation

Source: US8022036B2, “Use of thymosin alpha 1 for the treatment of immunological diseases” (Sigma-Tau Industrie Farmaceutiche Riunite S.p.A., priority 2006, dated 2011)
